Experimental data from patent US4818761A, “2-(4-pyridylaminomethyl)-benzimidazole derivatives having antiviral activity” (priority 1986, dated 1989).
In brackets after ≈: the same amount, converted by molar mass.

Assays:
[1] = system: poliovirus type 2 (Polio2); assay: microbe, parasite or virus in culture; type: cell-based; conditions: for IC50: Enterovirus C, LLC-MK2, read-out: IC50 Polio2; for CI Polio2 (C)/(A): CI = CD50 (LLC-MK2)/IC50 (plaque)
[2] = system: coxsackievirus type B4 (CB4); assay: Inhibition of CB4 plaque formation in LLC-MK2 cells; type: cell-based; conditions: for CI CB4 (C)/(A): CI = CD50 (LLC-MK2)/IC50 (plaque); for IC50: Coxsackievirus, plaque reduction, LLC-MK2 cells, 37° C.
[3] = system: enterovirus type 70 (EV70); assay: Inhibition of EV70 plaque formation in LLC-MK2 cells; type: cell-based; conditions: for CI EV70 (C)/(A): CI = CD50 (LLC-MK2)/IC50 (plaque); for IC50: Enterovirus D, plaque reduction, LLC-MK2 cells, 33° C.
in vitro [4] = conditions: monkey, llc-mk2 cells
[5] = system: rhinovirus type 14 (HRV14); assay: Inhibition of HRV14 cytopathogenic effect (CPE) in HeLa cells; type: cell-based; conditions: Enterovirus, HRV14; * Virus CPE inhibition assay, HeLa cells, 33° C.
in vitro [6] = conditions: human, hela cells
[7] = system: coxsackievirus type B4 (CB4); assay: Inhibition of CB4 cytopathogenic effect (CPE) in LLC-MK2 cells; type: cell-based; conditions: for IC50: Coxsackievirus, * Virus CPE inhibition assay, LLC-MK2 cells, 37° C.
[8] = system: enterovirus type 70 (EV70); assay: Inhibition of EV70 cytopathogenic effect (CPE) in LLC-MK2 cells; type: cell-based; conditions: Enterovirus D; * Virus CPE inhibition assay, LLC-MK2 cells, 33° C.
[9] = system: rhinovirus type 14 (HRV14); assay: Inhibition of HRV14 plaque formation in HeLa cells; type: cell-based; conditions: for CI HRV14 (D)/(B): CI = CD50 (HeLa)/IC50 (plaque); for IC50: Enterovirus, HRV14, plaque reduction, HeLa cells, 33° C.

| Structure (SMILES) | IC50 [1] | CI CB4 (C)/(A) [2] | IC50 [2] | CI EV70 (C)/(A) [3] | IC50 [3] | CC50 (in vitro [4]) | IC50 [5] | CC50 (in vitro [6]) | CI CB4 (C)/(A) ([7]; CI = CD50 (LLC-MK2)/IC50 (virus CPE)) | IC50 [7] | IC50 [8] | CI HRV14 (D)/(B) [9] | IC50 [9] | CI Polio2 (C)/(A) [1] |
| --- | --- | --- | --- | --- | --- | --- | --- | --- | --- | --- | --- | --- | --- | --- |
| Cl.Fc1cccc(-n2c(CNc3ccncc3)nc3ccccc32)c1 [LVIII, 1-(3-fluorophenyl)-2-(4-pyridylaminomethyl)benzimidazole hydrochloride] | > 100 µg/mL | > 278 | 3.6 µg/mL | > 200 | 5 µg/mL | > 1000 µg/mL | > 100 µg/mL | > 100 µg/mL | – | – | – | – | – | – |
| CC(C)Cn1c(CNc2ccncc2)nc2ccccc21 [XLIX] | – | – | – | – | > 100 µg/mL | > 2000 µg/mL | > 100 µg/mL | – | > 952 | 2.1 µg/mL (≈ 7.49 µM) | – | – | – | – |
| Fc1ccccc1-n1c(CNc2ccncc2)nc2ccccc21 [LVII] | > 100 µg/mL | 233 | 8.6 µg/mL (≈ 27 µM) | 83 | 24.1 µg/mL (≈ 75.7 µM) | 2000 µg/mL (≈ 6280 µM) | > 100 µg/mL | > 100 µg/mL | – | – | – | – | – | – |
| c1ccc(Oc2ccc3[nH]c(CNc4ccncc4)nc3c2)cc1 [LXXIV] | – | – | – | – | – | > 100 µg/mL | – | > 100 µg/mL | – | > 100 µg/mL | > 100 µg/mL | > 6 | 17.8 µg/mL (≈ 56.3 µM) | – |
| Cc1cc2nc(CNc3ccncc3)[nH]c2cc1Cl [XXIX] | 52 µg/mL (≈ 191 µM) | 15 | 11.5 µg/mL (≈ 42.2 µM) | 118 | 1.5 µg/mL (≈ 5.5 µM) | 177 µg/mL (≈ 648 µM) | – | 56.2 µg/mL (≈ 206 µM) | – | – | – | 15 | 3.8 µg/mL (≈ 13.9 µM) | 3 |
| Brc1ccc2[nH]c(CNc3ccncc3)nc2c1 [I, 2-(4-pyridylaminomethyl)-5-(6)-bromobenzimidazole] | > 25 µg/mL | 17 | 18 µg/mL (≈ 59.4 µM) | 101 | 3.1 µg/mL (≈ 10.2 µM) | 312 µg/mL (≈ 1030 µM) | – | 17.8 µg/mL (≈ 58.7 µM) | – | – | – | 3 | 5.8 µg/mL (≈ 19.1 µM) | – |
| CCOCCn1c(CNc2ccncc2)nc2ccccc21 [LIV] | – | – | – | – | – | > 2000 µg/mL | > 100 µg/mL | – | – | > 100 µg/mL | > 100 µg/mL | – | – | – |
| Clc1ccc(-n2c(CNc3ccncc3)nc3ccccc32)cc1 [LIX] | 9.6 µg/mL (≈ 28.7 µM) | > 1,176 | 0.85 µg/mL (≈ 2.54 µM) | > 833 | 1.2 µg/mL (≈ 3.58 µM) | > 1000 µg/mL | – | > 100 µg/mL | – | – | – | > 4 | 25 µg/mL (≈ 74.7 µM) | > 111 |
| CC(=O)OCCOCn1c(CNc2ccncc2)nc2ccccc21 [LV] | 17.6 µg/mL (≈ 51.7 µM) | 8 | 11.9 µg/mL (≈ 35 µM) | > 63 | 1.6 µg/mL (≈ 4.7 µM) | > 100 µg/mL | – | > 100 µg/mL | – | – | – | > 6 | 15.6 µg/mL (≈ 45.8 µM) | > 6 |
| Fc1ccc2[nH]c(CNc3ccncc3)nc2c1 [II] | > 25 µg/mL | 29 | 6 µg/mL (≈ 24.8 µM) | 126 | 1.4 µg/mL (≈ 5.78 µM) | 177 µg/mL (≈ 730 µM) | – | 56.2 µg/mL (≈ 232 µM) | – | – | – | 4 | 14.5 µg/mL (≈ 59.9 µM) | – |
| Cc1ccc(-n2c(CNc3ccncc3)nc3ccccc32)cc1C [LXX] | > 50 µg/mL | > 6 | 16 µg/mL (≈ 48.7 µM) | > 15 | 6.5 µg/mL (≈ 19.8 µM) | > 100 µg/mL | – | > 100 µg/mL | – | – | – | > 2 | 40.7 µg/mL (≈ 124 µM) | – |
| CC(C)(C)C(=O)Cn1c(CNc2ccncc2)nc2ccccc21 [LIII] | – | – | – | – | – | > 2000 µg/mL | > 100 µg/mL | – | – | > 100 µg/mL | > 100 µg/mL | – | – | – |
| Cc1ccc(-n2c(CNc3ccncc3)nc3ccccc32)cc1F [LXXI] | > 50 µg/mL | > 31 | 3.2 µg/mL (≈ 9.63 µM) | > 25 | 4 µg/mL (≈ 12 µM) | > 100 µg/mL | – | > 100 µg/mL | – | – | – | > 2 | 49.7 µg/mL (≈ 150 µM) | – |
| CC(C)c1ccc2[nH]c(CNc3ccncc3)nc2c1 [VI] | > 100 µg/mL | > 15 | 69 µg/mL (≈ 259 µM) | > 476 | 2.1 µg/mL (≈ 7.88 µM) | > 1000 µg/mL | – | 56.2 µg/mL (≈ 211 µM) | – | – | – | 3 | 16.5 µg/mL (≈ 61.9 µM) | – |
